Source: patent US4663340A, “Alpha-adrenoreceptor agonistic 2-[(2-cyclopropyl-5-methyl- or 2-cyclopropyl-5-chlorophenoxy)methyl]-2-imidazolines” (priority 1984, dated 1987)
Entries after “also recorded” stand apart in the source; their conditions may differ.

Tests used:
α1-adrenoceptor = test: Vasoconstrictor effect in pithed rat after reserpine pre-treatment (direct action); type: in vivo, Wistar rat; details: except in very high doses
Excerpt: (§1) (1) The vaso-constrictor properties and potency of the compounds (I) object of the present invention have been investigated and quantified in the anaesthetized pithed rat by determination of their dose-[…] response curves after intravenous administration, according to the technique described by Shipley and Tilden (Proceedings of Society of Experimental Biology, 1947, 64, pages 453-455). This technique allows assessment of the postsynaptic α-adrenoceptor agonist properties of a drug. […] For each of these drugs, log of cumulative doses-hypertensive response curves after intravenous administration have been drawn in groups of eight Wistar rats, anaesthetized, pithed, bilaterally vagotomized, atropinized and treated with d-tribocurarine. ED50 s (doses in mg/kg of the base inducing 50% of the maximal response) were then calculated for each drug and compared to those of the reference compounds.
(a) ND 83201 is a directly acting α1 -adrenoceptor agonist.

[1] = tested on: postsynaptic α1-adrenoceptor; details: literature; cited from earlier work
[2] = tested on: postsynaptic α2-adrenoceptor; test: Vasoconstrictor effect in pithed rat after specific postsynaptic α2-adrenoceptor antagonist yohimbine; type: in vivo, Wistar rat; details: for ED50 after yohimbine: I.V.; for ED50 after yohimbine / antagonism of vasoconstrictor effect by yohimbine / ED50 after / ED50 before yohimbine: yohimbine 60 μg/kg/min./5 mins.; for postsynaptic α2-adrenoceptor agonist properties / antagonism of vasoconstrictor effect by yohimbine: in words
Excerpt: as §1
(§2) For each of the three drugs log of cumulative doses-hypertensive response curves after intravenous administration have been drawn and their ED50 s (in μg per kg) were calculated before and after administration of the antagonists in groups of 8 animals each.

[3] = Stability of aqueous solution (hydrolysis of the imidazoline cycle); type: physicochemical; details: 1 per mill aqueous solution, room temperature
[4] = tested on: presynaptic α2-adrenoceptor; test: Presynaptic α2-adrenoceptor agonist activity: reduction of induced submaximal tachycardia in pithed rat; type: in vivo, Wistar rat; details: for effect on induced submaximal tachycardia / presynaptic α2-adrenoceptor agonist activity: electrically stimulated spinal cord
[5] = tested on: postsynaptic α1-adrenoceptor; test: Vasoconstrictor effect in pithed rat after specific postsynaptic α1-adrenoceptor antagonist prazosine; type: in vivo, Wistar rat; details: for ED50 after prazosine: I.V.
Excerpt: as §1, §2

[6] = tested on: presynaptic α2-adrenoceptor; test: Presynaptic α2-adrenoceptor antagonist activity: restoration of tachycardia reduced by clonidine in pithed rat; details: for Heartbeat frequency under electric stimulation (supramaximal tachycardia): before clonidine and tested substance; for Heartbeat frequency under electric stimulation and after clonidine: clonidine 40 μg/kg, I.V., before tested substance; for restoration of submaximal tachycardia / presynaptic α2-adrenoceptor antagonist activity: in words, after clonidine 40 μg/kg I.V.
[7] = tested on: postsynaptic α1-adrenoceptor; test: Vasoconstrictor (hypertensive) dose-response in anaesthetized pithed rat, i.v.; type: in vivo, Wistar rat; details: for Relative power towards Cirazoline: Table I; for Relative power towards Cirazoline / ED50 / potency relative to Cirazoline / potency relative to Fenoxazoline: pithed rat; for ED50 (before antagonists): Table II, before administration of antagonists; for ED50: dose of base inducing 50% of maximal response
Excerpt: as §1
Table I reports the values of these ED50 s. It appears from this table that compounds ND 83201 and ND 83204 are the most powerful vaso-constrictor agents, their potency being about 1.75 times that of Cirazoline and three times that of Fenoxazoline.

Solubility in water = type: physicochemical; details: hydrochloride
β-adrenoceptor = test: Vasoconstrictor ED50 after β-adrenoceptor antagonist pretreatment (β-adrenoceptor postsynaptic agonist activity); type: in vivo, Wistar rat; details: propranold 150 μg/kg/min/5 min
Excerpt: (d) ND 83201 has no β-adrenoceptor postsynaptic agonist activity.

Question: Which “effect of reserpine pre-treatment on vasoconstrictor effects” value (shortened to “effect of reserpine pre-treatment”) (α1-adrenoceptor) does the source give for `c1ccc(C2CC2)c(OCC2=NCCN2)c1` [Cirazoline, (2'-cyclopropyl)-2-phenyloxymethyl-Δ2-imidazoline] here?
Answer: The value was “not, except in very high doses, modified”.

Question: And the “known vasoconstrictor / postsynaptic α1-adrenoceptor agonist activity” value [1]?
Answer: The value was “the most powerful and specific postsynaptic α1-adrenoceptor agonist known up to now; also recorded: powerful nasal vasoconstrictor”.

Question: And the ED50 after yohimbine [2]?
Answer: Its ED50 after yohimbine is 1.180 ± 0.108 µg/kg.

Question: And the “postsynaptic α2-adrenoceptor agonist properties” value [2]?
Answer: The value was “no postsynaptic α2-adrenoceptor agonist”.

Question: What about the “antagonism of vasoconstrictor effect by yohimbine” value [2] of the same compound?
Answer: Its value is “almost not antagonized by yohimbine”.

Question: And the “ED50 after / ED50 before yohimbine” value [2]?
Answer: The value was 1.05.

Question: What about the “appearance of hydrolysis product (amino-amide (V)) in aqueous solution” value [3] of the same compound?
Answer: The value was “after a few days the appearance of the cleaving product by hydrolysis of the imidazoline cycle”.

Question: And the “effect on induced submaximal tachycardia / presynaptic α2-adrenoceptor agonist activity” value [4]?
Answer: Its value is “completey devoid of any presynaptic α2 -adrenoceptor agonist activity and no”.

Question: What about the ED50 after prazosine ([5]; prazosine 20 μg/kg/min./5 min.) of the same compound?
Answer: The ED50 after prazosine was 8.568 ± 0.721 µg/kg.

Question: And the “nature of agonist effect (postsynaptic α1-adrenoceptor)” value ([5]; in words)?
Answer: The value was “specific and direct postsynaptic α1 -adrenoceptor agonist effects”.

Question: And the “ED50 after / ED50 before prazosine” value ([5]; prazosine 20 μg/kg/min./5 min.)?
Answer: Its value is 7.75.

Question: What about the “Heartbeat frequency under electric stimulation (supramaximal tachycardia)” value [6] of the same compound?
Answer: Its value is 452.1 ± 10.5.

Question: And the “Heartbeat frequency under electric stimulation and after clonidine” value [6]?
Answer: Its value is 395.7 ± 14.1.

Question: What about the “restoration of submaximal tachycardia / presynaptic α2-adrenoceptor antagonist activity” value [6] of the same compound?
Answer: Its value is “neither and no effect and no”.

Question: And the “Relative power towards Cirazoline” value [7]?
Answer: Its value is 1.

Question: And the “ED50 (before antagonists)” value [7]?
Answer: Its value is 1.105 ± 0.132 µg/kg.

Question: What about the ED50 [7] of the same compound?
Answer: The ED50 was 1.105 ± 0.132 µg/kg.

Question: For `CC(C)c1ccccc1OCC1=NCCN1` [Fenoxazoline], which “effect of reserpine pre-treatment” value (α1-adrenoceptor) is on record?
Answer: The value was “not, except in very high doses, modified”.

Question: What about the “known vasoconstrictor / postsynaptic α1-adrenoceptor agonist activity” value [1] of the same compound?
Answer: The value was “postsynaptic α1 -adrenoceptor agonist”.

Question: And the ED50 after yohimbine [2]?
Answer: The ED50 after yohimbine was 1.804 ± 0.237 µg/kg.

Question: And the “antagonism of vasoconstrictor effect by yohimbine” value [2]?
Answer: The value was “almost not antagonized by yohimbine”.

Question: What about the “ED50 after / ED50 before yohimbine” value [2] of the same compound?
Answer: The value was 1.01.

Question: And the ED50 after prazosine ([5]; prazosine 20 μg/kg/min./5 min.)?
Answer: The ED50 after prazosine was 16.205 ± 1.240 µg/kg.

Question: And the “ED50 after / ED50 before prazosine” value ([5]; prazosine 20 μg/kg/min./5 min.)?
Answer: The value was 9.05.

Question: What about the “Relative power towards Cirazoline” value [7] of the same compound?
Answer: The value was 0.62.

Question: And the “ED50 (before antagonists)” value [7]?
Answer: Its value is 1.790 ± 0.147 µg/kg.

Question: What about the ED50 [7] of the same compound?
Answer: Its ED50 is 1.790 ± 0.147 µg/kg.

Question: Which results are given for `Brc1ccc(C2CC2)c(OCC2=NCCN2)c1` [ND 83 202, (5'-bromo-2'-cyclopropyl)-2-phenoxymethyl-Δ2-imidazoline]?
Answer: Relative power towards Cirazoline [7]: 0.25; ED50 [7]: 4.422 ± 0.329 µg/kg

Question: What does the source list for `CCCCCc1ccc(C2CC2)c(OCC2=NCCN2)c1` [ND 83 203, (5'-n-pentyl-2'-cyclopropyl)-2-phenyloxymethyl-Δ2-imidazoline]?
Answer: Relative power towards Cirazoline [7]: 0.015; ED50 [7]: 74.182 ± 6.667 µg/kg

Question: Which “appearance of hydrolysis product (amino-amide (V)) in aqueous solution” value [3] does the source give for `Clc1ccc(C2CC2)c(OCC2=NCCN2)c1` [ND 83 204, (5'-chloro-2'-cyclopropyl)-2-phenoxymethyl-Δ2-imidazoline] here?
Answer: The value was “even after one month, no trace of hydrolysis is yet detectable”.

Question: What about the solubility in water (Solubility in water) of the same compound?
Answer: The solubility in water was “not very soluble in water”.

Question: And the “Relative power towards Cirazoline” value [7]?
Answer: The value was 1.72.

Question: What about the “potency relative to Cirazoline” value [7] of the same compound?
Answer: Its value is “about 1.75 times”.

Question: What about the “potency relative to Fenoxazoline” value [7] of the same compound?
Answer: Its value is “three”.

Question: What about the ED50 [7] of the same compound?
Answer: Its ED50 is 0.644 ± 0.050 µg/kg.

Question: Which “effect of reserpine pre-treatment” value (α1-adrenoceptor) does the source give for `Cc1ccc(C2CC2)c(OCC2=NCCN2)c1` [ND 83201, (5'-methyl-2'-cyclopropyl)-2-phenyloxymethyl-Δ2-imidazoline] here?
Answer: The value was “not, except in very high doses, modified”.

Question: And the ED50 after yohimbine [2]?
Answer: Its ED50 after yohimbine is 0.805 ± 0.076 µg/kg.

Question: What about the “postsynaptic α2-adrenoceptor agonist properties” value [2] of the same compound?
Answer: The value was “no postsynaptic α2-adrenoceptor agonist”.

Question: What about the “antagonism of vasoconstrictor effect by yohimbine” value [2] of the same compound?
Answer: The value was “almost not antagonized by yohimbine”.

Question: What about the “ED50 after / ED50 before yohimbine” value [2] of the same compound?
Answer: Its value is 1.25.

Question: What about the “effect on induced submaximal tachycardia / presynaptic α2-adrenoceptor agonist activity” value [4] of the same compound?
Answer: The value was “completey devoid of any presynaptic α2 -adrenoceptor agonist activity and no”.

Question: What about the “effect on induced submaximal tachycardia / presynaptic α2-adrenoceptor agonist activity” value ([4]; listed as ND 83 201) of the same compound?
Answer: Its value is “no presynaptic α2 -adrenoceptor agonist activity”.

Question: What about the ED50 after prazosine ([5]; prazosine 20 μg/kg/min./5 min.) of the same compound?
Answer: The ED50 after prazosine was 7.284 ± 0.974 µg/kg.

Question: What about the “nature of agonist effect (postsynaptic α1-adrenoceptor)” value ([5]; in words) of the same compound?
Answer: Its value is “specific and direct postsynaptic α1 -adrenoceptor agonist effects”.

Question: And the “antagonism of vasoconstrictor effect by prazosine” value ([5]; in words, prazosine 20 μg/kg/min./5 min.)?
Answer: The value was “strongly antagonized by prazosine and even slightly more than those of Cirazoline and Fenoxazoline”.

Question: What about the “ED50 after / ED50 before prazosine” value ([5]; prazosine 20 μg/kg/min./5 min.) of the same compound?
Answer: The value was 11.56.

Question: And the “ED50 change after β-adrenoceptor antagonist / β-adrenoceptor postsynaptic agonist activity” value (β-adrenoceptor)?
Answer: Its value is “not modified”.

Question: What about the “Heartbeat frequency under electric stimulation (supramaximal tachycardia)” value [6] of the same compound?
Answer: Its value is 448.7 ± 7.7.

Question: What about the “Heartbeat frequency under electric stimulation and after clonidine” value [6] of the same compound?
Answer: The value was 391.2 ± 5.9.

Question: And the “restoration of submaximal tachycardia / presynaptic α2-adrenoceptor antagonist activity” value [6]?
Answer: The value was “no presynaptic α2 -adrenoceptor antagonist activity and no effect and no”.

Question: And the solubility in water (Solubility in water)?
Answer: Its solubility in water is “not very soluble in water”.

Question: What about the “Relative power towards Cirazoline” value [7] of the same compound?
Answer: The value was 1.75.

Question: What about the “ED50 (before antagonists)” value [7] of the same compound?
Answer: The value was 0.630 ± 0.060 µg/kg.

Question: And the “potency relative to Cirazoline” value [7]?
Answer: Its value is “about 1.75 times”.

Question: What about the “potency relative to Fenoxazoline” value [7] of the same compound?
Answer: The value was “three”.

Question: And the ED50 [7]?
Answer: The ED50 was 0.630 ± 0.060 µg/kg.

Question: What does the source list for `Cc1ccc(N(CC2=NCCN2)c2cccc(O)c2)cc1` [Phentolamine]?
Answer: Heartbeat frequency under electric stimulation (supramaximal tachycardia) [6]: 455.6 ± 11.5; Heartbeat frequency under electric stimulation and after clonidine [6]: 411.2 ± 8.9; restoration of submaximal tachycardia / presynaptic α2-adrenoceptor antagonist activity [6]: resores sub-maximal tachycardia

Question: Which results are given for `Clc1cccc(Cl)c1N=C1NCCN1` [clonidine]?
Answer: effect on induced submaximal tachycardia / presynaptic α2-adrenoceptor agonist activity [4]: reduced the submaximal tachycardia; antagonism of clonidine effect by yohimbine ([4]; submaximal tachycardia): effect antagonized by yohimbine
